We go through two compounds from US11865086B2, “Cinnamaldehyde derivative compounds and methods of use for cinnamaldehyde derivative compounds nicotine cessation” (Pacific University, priority 2018, dated 2024).

Where two headings read alike, the source gives them in different places.

Usually Log P stands for the decadic logarithm of the partition coefficient of the neutral form, usually between octanol and water. The kinact is the rate constant of inactivation at saturating inhibitor. Broadly, the kinact/KI is the maximal inactivation rate divided by the concentration that gives half of it. Usually IC50 stands for the midpoint of a concentration-inhibition curve. A low value points to higher potency. By Kd is commonly meant the free concentration of one partner at which half of the binding sites on the other are occupied at equilibrium, for simple one-to-one binding. As usually defined, the Ki is the equilibrium dissociation constant of an inhibitor or competing ligand from its target. Low values mean higher affinity, high ones lower affinity.

The target in series [1] is T1, CYP2A6-mediated nicotine metabolism (Homo sapiens, UniProt P11509).
T1 sequence (P11509 1-494): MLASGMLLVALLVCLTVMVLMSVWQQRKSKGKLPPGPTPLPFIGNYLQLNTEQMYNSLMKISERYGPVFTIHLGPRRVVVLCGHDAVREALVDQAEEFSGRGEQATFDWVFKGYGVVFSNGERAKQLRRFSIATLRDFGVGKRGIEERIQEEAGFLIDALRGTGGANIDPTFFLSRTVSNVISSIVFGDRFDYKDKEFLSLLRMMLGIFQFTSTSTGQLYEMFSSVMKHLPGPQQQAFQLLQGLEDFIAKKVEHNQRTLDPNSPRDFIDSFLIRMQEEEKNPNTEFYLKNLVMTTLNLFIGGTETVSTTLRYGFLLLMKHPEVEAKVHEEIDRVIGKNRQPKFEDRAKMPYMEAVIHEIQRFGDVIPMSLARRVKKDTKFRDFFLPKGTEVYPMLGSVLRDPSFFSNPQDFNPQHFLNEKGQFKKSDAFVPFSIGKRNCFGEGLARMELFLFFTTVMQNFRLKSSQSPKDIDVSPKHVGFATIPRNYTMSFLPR
As to the kind of experiment: Model (Equation 2) predicting change in nicotine AUC from mechanism-based inhibition parameters. The conditions noted are these: Table 5, predicted nicotine AUC.

The conditions of series [2]: obtained from PubChem and ChemSpider; cited from earlier work.
The target in series [3] is T2, CYP2A6 (Homo sapiens, UniProt P11509).
T2 sequence (P11509 1-494): T1 sequence (P11509 1-494)
In words: in vitro. To be noted: recombinant CYP2A6, probe coumarin.
Excerpt: (§1) Since this type of inhibition also requires that the inhibitor is initially metabolized by the target enzyme, MBIs may be identified by evaluating the inhibition in the presence and absence of cofactors that are required for activity, such as NADPH for CYPs.

Series [4] concerns the target T2, CYP2A6. As to the kind of experiment: biochemical.
Excerpt: A 96-well plate assay and fluorescence spectroscopy may be used to quantify the product, 7-hydroxycoumarin.
Data was fit using GraphPad Prism.
Series [5] has as its target T3, CYP2A6 (Homo sapiens, UniProt P11509, K28S/Q25K/Q26K/R27T/W24A).
T3 sequence (P11509 with tags, fused parts or gaps limits assumed): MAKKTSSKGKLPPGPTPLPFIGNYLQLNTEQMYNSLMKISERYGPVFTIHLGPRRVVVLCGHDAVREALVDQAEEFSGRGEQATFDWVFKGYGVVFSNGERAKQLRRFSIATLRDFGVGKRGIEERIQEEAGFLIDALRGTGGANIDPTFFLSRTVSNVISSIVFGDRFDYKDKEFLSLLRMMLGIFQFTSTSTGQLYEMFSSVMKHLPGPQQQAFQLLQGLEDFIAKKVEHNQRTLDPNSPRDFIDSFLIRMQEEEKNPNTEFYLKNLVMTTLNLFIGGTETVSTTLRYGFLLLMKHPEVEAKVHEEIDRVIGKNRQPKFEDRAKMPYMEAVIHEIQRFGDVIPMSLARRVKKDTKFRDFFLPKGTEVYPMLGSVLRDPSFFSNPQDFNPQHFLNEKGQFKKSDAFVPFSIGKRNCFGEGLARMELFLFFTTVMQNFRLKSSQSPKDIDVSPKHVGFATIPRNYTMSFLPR
As to the kind of experiment: biochemical.
Description: Spectral binding studies were conducted using purified heterologously expressed CYP2A6 in Escherichia coli. […] Absorbance changes (A386-A418) may be plotted against added ligand concentrations in order to determine dissociation constants.
In more detail, the CYP2A6 enzyme may be heterologously expressed in Escherichia coli and purified. The expression vector, pKK2A6dH may be used to express the enzyme. The vector contains a cDNA sequence that codes for human CYP2A6 with a deletion of the N-terminal transmembrane sequence, an alteration of several residues at the modified N-terminus to increase expression, and four histidine residues added at the C-terminus to aid in purification. […] Expression from the vector may be induced with the addition of IPTG to bacterial cultures. δ-Aminolevulinic acid is added during expression to supplement heme biosynthesis. The enzyme may be purified following previously reported protocols. Briefly, following cell disruption, the solubilized enzyme may be purified using Ni^2+-affinity chromatography and cation-exchange (CM sepharose) chromatography, which may lead to protein of high purity and P450 content.

Series [6] has as its target T2, CYP2A6. In words: biochemical. This is another data set of the same source.
Excerpt: as §1
Series [7] concerns the target T2, CYP2A6. In words: Time-dependent inhibition screen, recombinant CYP2A6 system, coumarin hydroxylase readout.
Excerpt: as §1
Details of series [8]: species or system humans. To be noted: human. On the procedure: This has also observed in rats, for which full pharmacokinetic studies are available. Converting the dose in rats to humanized equivalent doses can estimate the doses necessary to achieve low μM concentrations of CA in humans. […] In rats a single 250 mg/kg oral dose generated a t-CA blood concentration of 7.6 μM. With the BSA method, t-CA doses of 32 mg and 320 mg per day are estimated to achieve concentrations of 0.1 and 1 μM in humans.

Series [9] addresses T2, CYP2A6. The conditions noted are these: recombinant enzyme.
Excerpt: as §1
The conditions of series [10]: rat, in vivo, po, 250 mg/kg; cited from earlier work.
The conditions of series [11]: in vivo; cited from earlier work.

`O=C/C(Br)=C/c1ccccc1` [α-bromo-CA, α-bromocinnamaldehyde]: the AUC fold increase in series [1] is given as 1.35-1.84. In addition, the “Log P” value in [2] is 2.7. For the same compound, at CYP2A6 [3], the kinact is 0.000283 s⁻¹ and the kinact/KI is 7.83 M⁻¹ s⁻¹. In addition, the IC50 at CYP2A6 [4] was 2.8 µM. At CYP2A6 [5], this compound yielded a Kd of 8.2 µM. The same compound returned a Ki at CYP2A6 [6] of 36.3 µM. Further, at CYP2A6 [7] (Table 5), the kinact result was “.017 min⁻¹” and the kinact/kI was 0.000463. The “Fold difference (with respect to CA)” value on CYP2A6 [7] (kinact/kI relative to t-CA) was determined as 0.32. On CYP2A6 [7] (with NADPH, 7-hydroxycoumarin formation), the “time-dependent inhibition of CYP2A6, result in words” value is “less potency as compared to t-CA”.

Regarding `O=C/C=C/c1ccccc1` [t-CA, trans-cinnamaldehyde], the entries for the “estimated t-CA dose” value in [8] (0.1 μM) and in series [8] (1 μM) were 32 mg per day and 320 mg per day, respectively. The “time-dependent inhibition of CYP2A6, result in words” value at CYP2A6 [9] is listed as “increases with time”. For the same compound, in [10], the t-CA blood concentration was 7.6 µM. Moreover, the “absorption upon oral administration” value in [11] is “completely absorbed”. At CYP2A6 [4], the IC50 is 6.9 ± 1.2 µM. Further, on CYP2A6 [5], binding was characterised by a dissociation constant (Kd) of 14.9 µM. The compound also yielded a Ki at CYP2A6 [6] of 27.2 µM.
